# ChEMBL document CHEMBL5223124, “Recent applications of covalent chemistries in protein-protein interaction inhibitors” (RSC Med Chem, 2022)
# Molecular target: E3 ubiquitin-protein ligase Mdm2 (Homo sapiens, UniProt Q00987)
# Test: Binding affinity to HDM2 (unknown origin)
# Sequence of E3 ubiquitin-protein ligase Mdm2 (Q00987 whole entry): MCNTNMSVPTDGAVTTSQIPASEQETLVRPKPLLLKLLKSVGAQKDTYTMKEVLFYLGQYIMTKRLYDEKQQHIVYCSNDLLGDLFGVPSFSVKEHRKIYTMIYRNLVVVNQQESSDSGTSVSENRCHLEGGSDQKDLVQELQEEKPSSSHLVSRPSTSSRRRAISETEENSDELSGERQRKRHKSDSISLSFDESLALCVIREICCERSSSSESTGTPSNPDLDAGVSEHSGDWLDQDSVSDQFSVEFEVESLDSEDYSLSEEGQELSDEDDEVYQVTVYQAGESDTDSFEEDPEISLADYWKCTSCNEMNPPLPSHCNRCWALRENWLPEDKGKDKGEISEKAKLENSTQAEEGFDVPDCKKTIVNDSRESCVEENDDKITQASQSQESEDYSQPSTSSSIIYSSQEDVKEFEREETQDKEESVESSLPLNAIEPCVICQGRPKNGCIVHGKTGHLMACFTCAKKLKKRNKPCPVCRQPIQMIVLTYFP
row,Kd,SMILES
1,570 nM,COc1ccc(C2=NC(c3ccc(Cl)cc3)C(c3ccc(Cl)cc3)N2C(=O)N2CCN(C(=O)CCCNC(=O)CCCC(=O)N(CC#N)S(=O)(=O)c3ccccc3)CC2)c(OC(C)C)c1 (centres undefined)

# Molecular target: Induced myeloid leukemia cell differentiation protein Mcl-1 (Homo sapiens, UniProt Q07820)
# Sequence (Q07820 whole entry): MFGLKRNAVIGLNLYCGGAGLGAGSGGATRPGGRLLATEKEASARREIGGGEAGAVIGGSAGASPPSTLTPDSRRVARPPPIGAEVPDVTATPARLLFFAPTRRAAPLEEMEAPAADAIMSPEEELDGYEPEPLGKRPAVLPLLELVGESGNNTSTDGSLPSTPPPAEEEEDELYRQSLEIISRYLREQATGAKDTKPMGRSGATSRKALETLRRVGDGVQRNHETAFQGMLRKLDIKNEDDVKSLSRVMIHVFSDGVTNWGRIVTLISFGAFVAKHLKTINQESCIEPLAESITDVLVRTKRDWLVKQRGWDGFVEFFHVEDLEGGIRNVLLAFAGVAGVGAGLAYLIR
# Test: Inhibition of MCL-1 in human MOLP8 cells assessed as increase in caspase 3/7 activation
# Type: cell-based
row,SMILES,EC50
1,Cc1c(-c2cccc3c(CCCOc4cccc5ccccc45)c(C(=O)O)[nH]c23)c(COc2ccc(B(O)O)cc2)nn1C,> 11000 nM
2,Cc1c(-c2cccc3c(CCCOc4cccc5ccccc45)c(C(=O)O)[nH]c23)c(COc2cccc(C=O)c2)nn1C,> 11000 nM
3,CC(=O)c1cccc(OCc2nn(C)c(C)c2-c2cccc3c(CCCOc4cccc5ccccc45)c(C(=O)O)[nH]c23)c1,2700 nM
4,Cc1c(-c2cccc3c(CCCOc4cccc5ccccc45)c(C(=O)O)[nH]c23)c(COc2ccccc2)nn1C,> 11000 nM
5,CC(=O)c1cc(OCc2nn(C)c(C)c2-c2cccc3c(CCCOc4cccc5ccccc45)c(C(=O)O)[nH]c23)ccc1B(O)O,1170 nM

# Second part, the compound after the results:
row,EC50,SMILES
1,75 nM,Cc1c(-c2cccc3c(CCCOc4cccc5ccccc45)c(C(=O)O)n(C)c23)c(COc2ccc(B(O)O)c(C=O)c2)nn1C
2,460 nM,Cc1c(-c2cccc3c(CCCOc4cccc5ccccc45)c(C(=O)O)[nH]c23)c(COc2ccc(B(O)O)c(C=O)c2)nn1C
3,340 nM,CCc1nn(C)c(CC)c1-c1cccc2c(CCCOc3cccc4ccccc34)c(C(=O)O)n(CCN3CCOCC3)c12
